Holding throughout (type): in vivo
One assay relates to Pyricularia oryzae. Put plainly: whole plant or invertebrate. To be noted: for Observed Efficacy: single compound, preventive spray, rice.
A further assay relates to Alternaria solani. Put plainly: Alternaria solani test in tomato (preventive, glasshouse).
The next assay relates to Erysiphe cichoracearum. Put plainly: Erysiphe cichoracearum test in cucumber (preventive, glasshouse). The note with it: single compound.
Another assay concerns Phakopsora pachyrhizi. Put plainly: Phakopsora pachyrhizi test in soybean (preventive, glasshouse). To be noted: single compound.
A further assay relates to Septoria nodorum. Put plainly: Parastagonospora nodorum/Septoria nodorum/Stagnospora nodorum test in wheat (preventive, glasshouse). To be noted: single compound. The protocol:
The single compounds or compound combinations were dissolved in 2% DMSO/Acetone and then mixed with water containing emulsifier to a calibrated spray volume of 50 mL. The spray solutions were poured into spray bottles for further applications.
To test the preventive activity of compounds, healthy young wheat plants, raised in the greenhouse, were sprayed with the single compound or mixture preparation at the stated application rates inside the spray cabinets using hollow cone nozzles. One day after treatment, the plants were inoculated with a suspension containing 2.8×10^6 Stagnospora nodorum inoculum. The inoculated plants were then kept in a greenhouse chamber at 22-25° C. temperature and 90-100% relative humidity for disease expression.
A visual assessment of the performance of the compounds and respective compound combinations was carried out by rating the disease severity (0-100% scale) on treated plants 3, 7 and 10 days after application. Efficacy (% control) of the compounds was calculated by comparing the disease rating in the treatment with the one of the untreated control. The compounds were also assessed for their plant compatibility by recording symptoms like necrosis, chlorosis & stunting. The results are shown for the compound of formula (I-1) to (I-5) in Table E1-E5.

The test system of another assay is Botrytis cinerea. Put plainly: Botrytis cinerea test in tomato (preventive, glasshouse). The note with it: single compound.
The mark [1] stands for this setting: Table B3, single compound, Conc. 0.05 ppm, preventive.
The mark [2] stands for this setting: Table B3, single compound, Conc. 0.1 ppm, preventive.
Setting [3] is: Table B4, single compound, Conc. 0.05 ppm, preventive.
The mark [4] stands for this setting: Table B4, single compound, Conc. 0.1 ppm, preventive.
Where [5] appears, read: single compound, 0.05 ppm, preventive.
Setting [6] is: single compound, 0.05 ppm, preventive spray.
[7] abbreviates: single compound, 0.1 ppm, preventive.
The mark [8] stands for this setting: single compound, 0.1 ppm, preventive spray.
Where [9] appears, read: 0.05 ppm, preventive spray on cucumber.
Where [10] appears, read: 0.1 ppm, preventive spray on cucumber.
Where [11] appears, read: 0.05 ppm, preventive spray on soybean.
Setting [12] is: 0.1 ppm, preventive spray on soybean.
The mark [13] stands for this setting: Conc. 0.05 ppm, soybean, preventive, Table D4.
[14] abbreviates: Conc. 0.05 ppm, soybean, preventive, Table D5.
[15] abbreviates: Conc. 0.1 ppm, soybean, preventive, Table D4.
Setting [16] is: Conc. 0.1 ppm, soybean, preventive, Table D5.
Setting [17] is: Table F4, Conc. 0.05 ppm, Botrytis cinerea in tomato, preventive.
Where [18] appears, read: Table F4, Conc. 0.1 ppm, Botrytis cinerea in tomato, preventive.
Where [19] appears, read: Table F5, Conc. 0.1 ppm, Botrytis cinerea in tomato, preventive.
[20] abbreviates: Conc. 0.05 ppm, preventive spray on tomato, % control vs untreated.
Setting [21] is: Conc. 0.1 ppm, preventive spray on tomato, % control vs untreated.
[22] abbreviates: Pyricularia oryzae, read-out: Observed Efficacy.
The mark [23] stands for this setting: Alternaria solani, single compound, 0.05 ppm, preventive spray, read-out: Observed Efficacy (%).
[24] abbreviates: Alternaria solani, single compound, 0.1 ppm, preventive spray, read-out: Observed Efficacy (%).
The mark [25] stands for this setting: Phakopsora pachyrhizi, 0.1 ppm, preventive spray on soybean, read-out: Observed Efficacy (%).
The mark [26] stands for this setting: Phakopsora pachyrhizi, Conc. 0.05 ppm, soybean, preventive, Table D4, read-out: Observed Efficacy (%).
Setting [27] is: Parastagonospora nodorum, 0.1 ppm, read-out: Observed Efficacy (%).
Where [28] appears, read: Botrytis cinerea, Conc. 0.05 ppm, preventive spray on tomato, % control vs untreated, read-out: Observed Efficacy (%).
[29] abbreviates: Botrytis cinerea, Conc. 0.1 ppm, preventive spray on tomato, % control vs untreated, read-out: Observed Efficacy (%).
Setting [30] is: single compound, Conc. 0.05 ppm, preventive spray.

Like-named read-outs stand apart in the source and are kept apart here.

For the molecule `Cn1cc(C(=O)Nc2cccc3c2[C@@H]2CC[C@H]3C2=C(Cl)Cl)c(C(F)F)n1` (racemic) [Benzovindiflupyr, benzovindiflupyr], the “Observed Efficacy” value in the assay on Pyricularia oryzae (Conc. 0.05 ppm) was 17%. The “Observed Efficacy (%)” value with Alternaria solani (setting [1]) turned out to be 14%; in the assay on Alternaria solani (setting [2]) it was 29%; in the assay with Alternaria solani (setting [3]), 14%; with Alternaria solani (setting [4]), 29%; with Alternaria solani (setting [5]) it was 14%; with Alternaria solani (setting [6]), 14%. In addition, the “Observed Efficacy (%)” value in the assay on Alternaria solani (setting [7]) turned out to be 29%; with Alternaria solani (setting [8]) it was 29%; with Erysiphe cichoracearum (0.05 ppm, cucumber, preventive), 24%; with Erysiphe cichoracearum (setting [9]) it was 24%; in the assay on Erysiphe cichoracearum (0.1 ppm, cucumber, preventive), 29%; with Erysiphe cichoracearum (setting [10]), 29%. Further, the “Observed Efficacy (%)” value came to 27% in the assay with Phakopsora pachyrhizi (setting [11]); 38% in the assay on Phakopsora pachyrhizi (setting [12]); 27% in the assay on Phakopsora pachyrhizi (setting [13]); 27% with Phakopsora pachyrhizi (setting [14]); 38% with Phakopsora pachyrhizi (setting [15]); 38% in the assay on Phakopsora pachyrhizi (setting [16]). Also, the “Observed Efficacy (%)” value in the assay with Septoria nodorum (0.05 ppm) is listed as 29%; in the assay with Botrytis cinerea (setting [17]), 33%; in the assay on Botrytis cinerea (setting [18]) it was 42%; in the assay with Botrytis cinerea (setting [19]), 42%; in the assay with Botrytis cinerea (setting [20]), 33%; in the assay on Botrytis cinerea (setting [21]), 42%.
Regarding `CCN(C)C=Nc1cc(C)cc(Cc2ccc(C)cc2)c1C` [Compound (I-2), N′-(2,5-dimethyl-3-(4-methylbenzyl)phenyl)-N-ethyl-N-methylformimidamide], the pest or weed control at 1 ppm in the assay with Pyricularia oryzae (setting [22]) was determined as 13%; in the assay with Alternaria solani (Alternaria solani, single compound, 1 ppm, preventive spray, read-out: Observed Efficacy (%)), 13%; with Septoria nodorum (Parastagonospora nodorum, 1 ppm, read-out: Observed Efficacy (%)) it was 13%; in the assay on Botrytis cinerea (Botrytis cinerea, Conc. 1 ppm, preventive spray on tomato, % control vs untreated, read-out: Observed Efficacy (%)) it was 23%. The pest or weed control at 5 ppm with Pyricularia oryzae (setting [22]) turned out to be 23%; in the assay with Alternaria solani (Alternaria solani, single compound, 5 ppm, preventive spray, read-out: Observed Efficacy (%)), 23%; in the assay with Septoria nodorum (Parastagonospora nodorum, 5 ppm, read-out: Observed Efficacy (%)), 23%; in the assay on Botrytis cinerea (Botrytis cinerea, Conc. 5 ppm, preventive spray on tomato, % control vs untreated, read-out: Observed Efficacy (%)), 33%. Moreover, the pest or weed control at 20 ppm in the assay on Pyricularia oryzae (setting [22]) came to 37%; in the assay with Alternaria solani (Alternaria solani, single compound, 20 ppm, preventive spray, read-out: Observed Efficacy (%)) it was 33%; with Septoria nodorum (Parastagonospora nodorum, 20 ppm, read-out: Observed Efficacy (%)), 33%; in the assay with Botrytis cinerea (Botrytis cinerea, Conc. 20 ppm, preventive spray on tomato, % control vs untreated, read-out: Observed Efficacy (%)), 53%. In addition, the pest or weed control at 0.0001 ppm in the assay with Phakopsora pachyrhizi (Phakopsora pachyrhizi, 0.0001 ppm, preventive spray on soybean, read-out: Observed Efficacy (%)) was 47%. The pest or weed control at 0.001 ppm with Phakopsora pachyrhizi (Phakopsora pachyrhizi, 0.001 ppm, preventive spray on soybean, read-out: Observed Efficacy (%)) came to 57%. Also, the pest or weed control at 0.01 ppm in the assay on Phakopsora pachyrhizi (Phakopsora pachyrhizi, 0.01 ppm, preventive spray on soybean, read-out: Observed Efficacy (%)) worked out at 68%.
As for `CC1COC(Cn2cncn2)(c2ccc(Oc3ccc(Cl)cc3)cc2Cl)O1` (stereo not shown) [Difenconazole, difenoconazole], the pest or weed control at 0.05 ppm worked out at 24% in the assay with Pyricularia oryzae (setting [22]); 42% in the assay on Alternaria solani (setting [23]); 42% in the assay with Alternaria solani (Alternaria solani, single compound, Conc. 0.05 ppm, preventive spray, read-out: Observed Efficacy); 17% with Phakopsora pachyrhizi (setting [26]); 42% with Botrytis cinerea (setting [28]). Besides, the pest or weed control at 0.1 ppm in the assay with Pyricularia oryzae (setting [22]) was found to be 26%; in the assay on Alternaria solani (setting [24]) it was 47%; in the assay with Alternaria solani (Alternaria solani, single compound, Conc. 0.1 ppm, preventive spray, read-out: Observed Efficacy) it was 47%; with Phakopsora pachyrhizi (setting [25]), 24%; in the assay with Septoria nodorum (setting [27]), 32%; in the assay with Botrytis cinerea (setting [29]) it was 52%. The “Observed Efficacy (%)” value worked out at 47% with Alternaria solani (setting [4]); 42% in the assay with Alternaria solani (setting [5]); 47% in the assay on Alternaria solani (setting [7]); 24% with Phakopsora pachyrhizi (setting [15]); 24% in the assay with Phakopsora pachyrhizi (setting [16]); 42% in the assay on Botrytis cinerea (setting [17]). Further, the “Observed Efficacy (%)” value in the assay with Botrytis cinerea (setting [18]) came out at 52%.
With `Cn1cc(C(=O)Nc2ccccc2-c2cc(F)c(F)c(F)c2)c(C(F)F)n1` [Fluxapyroxad, fluxapyroxad], the “Observed Efficacy” value with Pyricularia oryzae (Conc. 0.05 ppm) was 24%; in the assay with Pyricularia oryzae (Conc. 0.1 ppm), 32%; with Alternaria solani (setting [30]), 40%. The “Observed Efficacy (%)” value in the assay on Alternaria solani (setting [1]) is 40%; in the assay with Alternaria solani (setting [2]), 56%; in the assay with Alternaria solani (setting [6]), 40%; in the assay on Alternaria solani (setting [8]), 56%; in the assay on Phakopsora pachyrhizi (setting [14]), 46%; with Phakopsora pachyrhizi (setting [16]), 59%. Besides, the “Observed Efficacy (%)” value in the assay with Septoria nodorum (0.05 ppm) was found to be 3%; in the assay on Septoria nodorum (0.1 ppm), 5%; with Botrytis cinerea (setting [21]), 38%.
Regarding `CON=C(C(=O)OC)c1ccccc1CON=C(C)c1cccc(C(F)(F)F)c1` [Trifloxystrobin, trifloxystrobin], the pest or weed control at 0.05 ppm came out at 24% with Pyricularia oryzae (setting [22]); 33% in the assay with Alternaria solani (setting [23]); 22% in the assay on Phakopsora pachyrhizi (setting [26]); 5% with Septoria nodorum (Parastagonospora nodorum, 0.05 ppm, read-out: Observed Efficacy (%)); 26% in the assay on Botrytis cinerea (setting [28]). The pest or weed control at 0.1 ppm is 32% in the assay on Pyricularia oryzae (setting [22]); 40% with Alternaria solani (setting [24]); 32% with Phakopsora pachyrhizi (setting [25]); 18% in the assay on Septoria nodorum (setting [27]); 33% in the assay with Botrytis cinerea (setting [29]). The “Observed Efficacy (%)” value in the assay on Alternaria solani (setting [2]) is 40%; with Phakopsora pachyrhizi (setting [15]), 32%; with Phakopsora pachyrhizi (setting [16]), 32%; in the assay on Botrytis cinerea (setting [17]), 26%; with Botrytis cinerea (setting [18]), 33%.
For propineb, the “Observed Efficacy (%)” value in the assay with Alternaria solani (setting [3]) was found to be 20%; in the assay on Alternaria solani (setting [4]) it was 31%; with Alternaria solani (setting [5]) it was 20%; in the assay with Alternaria solani (setting [6]) it was 20%; in the assay with Alternaria solani (setting [8]), 31%; in the assay with Erysiphe cichoracearum (0.05 ppm, cucumber, preventive) it was 14%. The “Observed Efficacy (%)” value turned out to be 14% in the assay with Erysiphe cichoracearum (setting [9]); 43% in the assay with Erysiphe cichoracearum (0.1 ppm, cucumber, preventive); 43% in the assay on Erysiphe cichoracearum (setting [10]); 20% in the assay with Phakopsora pachyrhizi (setting [11]); 33% with Phakopsora pachyrhizi (setting [12]); 20% in the assay with Phakopsora pachyrhizi (setting [13]). Moreover, the “Observed Efficacy (%)” value in the assay with Phakopsora pachyrhizi (setting [14]) is reported as 20%; in the assay on Phakopsora pachyrhizi (setting [15]) it was 33%; in the assay on Phakopsora pachyrhizi (setting [16]), 33%; in the assay with Septoria nodorum (0.05 ppm), 12%; in the assay with Septoria nodorum (0.1 ppm), 24%; in the assay with Botrytis cinerea (setting [17]) it was 15%. In addition, the “Observed Efficacy (%)” value in the assay with Botrytis cinerea (setting [18]) is 22%; with Botrytis cinerea (Table F5, Conc. 0.05 ppm, Botrytis cinerea in tomato, preventive), 15%; in the assay with Botrytis cinerea (setting [19]) it was 22%; in the assay on Botrytis cinerea (setting [20]), 15%; in the assay with Botrytis cinerea (setting [21]), 22%. The “Observed Efficacy” value with Alternaria solani (setting [30]) turned out to be 20%.

The record behind these values is US20230413824A1, “AGROCHEMICAL COMPOSITION COMPRISING 3-SUBSTITUTED PHENYLAMIDINE COMPOUNDS AND USE THEREOF” (PI INDUSTRIES LIMITED, priority 2020, published 2023).
